Patent US20130143873A1 (priority 2010, published 2013)

What was measured:
[1] = system: C57BL/6J-TgN(SOD1-G93A)1Gur^dl transgenic mice; assay: Disease onset (time of peak body weight) in transgenic mice model for amyotrophic lateral sclerosis; assay type: in vivo; details: postnatal day 45 to 145
Procedure: (§1) Transgenic C57BL/6J-TgN(SOD1-G93A)1Gur^dl mice were originally purchased from The Jackson Laboratories (Bar Harbor, Me.) and routinely identified as positive carriers of the transgene at early postnatal age by PCR amplification (Garney et al. Motor neuron degeneration in mice that express a human Cu,Zn superoxide dismutase mutation. Science 1994. 264(5166):1772-5). The animal colony was kept under controlled temperature (22±2° C.), humidity (40-60%) and light (12 h cycles), and treated in accordance with the European Community Council directive on animal welfare (86/609/EEC).
At 40 days postnatal age, mice identified as positive carriers of the SOD1-G93A transgene were randomly assigned to a diazoxide-treatment or control group. The treatment started at postnatal day 45 and lasted until postnatal day 145. […] Each group consists of 30 animals.
The disease onset was determined as the time when the mouse reached its peak body weight.

[2] = system: C57BL/6J-TgN(SOD1-G93A)1Gur^dl transgenic mice; assay: Survival in transgenic mice model for amyotrophic lateral sclerosis; assay type: in vivo
Procedure: as §1
At 70 days postnatal age, mice identified as positive carriers of the SOD1-G93A transgene were randomly assigned to a diazoxide-treatment or control group. An additional group composed by wild type C57BL/6J was also used as absolute control for spontaneous deaths. The treatment started at postnatal day 70 and lasted until the animal was sacrificed. […] Each group consists of 14 animals.
Around 75 days of postnatal age treated and not treated mice began to display less exploratory activity and less feeding behaviour as well as a loss of body weight. 20-30 days after, motor deficits were clearly observable, with a continuous loss of muscular mass and body weight. Between postnatal day 137 and 172 animals began to not be able to right themselves within 30 seconds from either side being this their last period of survival. Date and cause of death were recorded for each mouse. For humanitarian reasons, animals were closely monitored and sacrificed as moribund prior to actual death using criteria for severe moribund state. To determine duration of survival reliably and humanely, the moribund state, defined as the inability of mice to right themselves 30 seconds after being placed on a side was used. The moribund mice were considered as “dead”, and were euthanized using carbon dioxide. It is known that when animals reach this “moribund” stage they are unable to survive more than 24 additional hours.

[3] = Blood glucose (hyperglycemia) after daily oral diazoxide in C57BL/6J mice; assay type: in vivo; details: female C57BL/6J mice; 1 mg/kg (3 mg/m^2) and 0.05 mg/kg (0.15 mg/m^2) p.o. daily; 30 days; glucose at time 0 and 60 minutes
Procedure: Female C57BL/6J mice, 11 weeks of age, were purchased from Charles River and maintained on a 12:12 hr light:dark cycle, with standard chow and water freely available. The experiments began at 11:00 h. […] From day 4 on, glucose blood levels were measured every 3-4 days during the 30-day treatment period. Measurements were performed immediately before drug administration (time 0) and at 60 minutes. Blood samples were obtained from the saphenous vein and glucose levels were determined using a glucometer and glucose test strips (Accu-Chek® Aviva, Roche Diagnostics, Indianapolis, Ind., USA). For each group, hyperglycemia was considered when glucose concentration was equal or higher than 176 mg/dl.

[4] = system: C57BL/6J-TgN(SOD1-G93A)1Gur^dl transgenic mice; assay: Motor nerve conduction, tibialis anterior CMAP amplitude, in transgenic mice model for amyotrophic lateral sclerosis; assay type: in vivo; details: postnatal day 45 to 85; for increase in the amplitude of the tibialis anterior CMAP compared with the vehicle control group: 100% = mean CMAP amplitude of wild type control group
Procedure: as §1
At 40 days postnatal age, mice identified as positive carriers of the SOD1-G93A transgene were randomly assigned to a diazoxide-treatment or control group. An additional group composed by wild type C57BL/6J was also used as absolute control for nerve conduction measurements. The treatment started at postnatal day 45 and lasted until postnatal day 85. The drug was administered daily orally by gavage (p.o.), in a dose volume of 200 μl. […] Each group consists of 8 animals.
At postnatal day 85 days, animals were tested for nerve conduction measurament. For motor nerve conduction tests, the sciatic nerve was stimulated percutaneously by means of single pulses of 0.02 ms duration (Grass S88) delivered through a pair of needle electrodes placed at the sciatic notch. The Compound Muscle Action Potential (CMAP, M wave) was recorded from the tibialis anterior (TA) with microneedle electrodes. […] To ensure reproducibility, the recording needles were placed under microscope to secure the same placement on all animals guided by anatomical landmarks. During the tests, the mice body temperature was kept constant by means of a thermostated warming pad.

mice = details: 100 mg/kg (300 mg/m^2); cited from earlier work
[5] = Blood glucose (hyperglycemia) after daily oral diazoxide in SOD1-G93A transgenic mice; assay type: in vivo; details: 4 mg/kg/day (12 mg/m^2/day) and 0.8 mg/kg/day (2.4 mg/m^2/day) p.o., 100 days, glucose at postnatal days 105, 115, 145
Procedure: as §1
At 40 days postnatal age, mice identified as positive carriers of the SOD1-G93A transgene were randomly assigned to a diazoxide-treatment or control group. The treatment started at postnatal day 45 and lasted until postnatal day 145. […] Each group consists of 3 animals.
Glucose blood levels were measured at postnatal days 105, 115 and 145. Measurements were performed immediately before drug administration (time 0) and at 60 minutes. Blood samples were obtained from the saphenous vein and glucose levels were determined using a glucometer and glucose test strips (Accu-Chek® Aviva, Roche Diagnostics, Indianapolis, Ind., USA). For each group, hyperglycemia was considered when glucose concentration was equal or higher than 176 mg/dl.

[6] = 0.05 mg/kg/day (0.15 mg/m^2/day) p.o. from postnatal day 70
[7] = 0.1 mg/kg/day (0.3 mg/m^2/day) p.o. from postnatal day 70
[8] = 1 mg/kg/day (3 mg/m^2/day) p.o. from postnatal day 70

In the case of `CC1=NS(=O)(=O)c2cc(Cl)ccc2N1` [Diazoxide], the “Median Age of Disease Onset” value ([1]; 0.8 mg/kg/day (2.4 mg/m^2/day) p.o.) is reported as 121 days, the “Median Age of Disease Onset” value ([1]; 4 mg/kg/day (12 mg/m^2/day) p.o.) is reported as 116 days and the “Median Survival” value [2, 6] is reported as 153 days. For the same compound, the “Percentage of mice alive at age of 21 weeks” value (shortened to “Percentage of mice alive”) [2, 6] was 78.6%, the “Percentage of mice alive” value ([2]; 0.05 mg/kg/day (0.15 mg/m^2/day) p.o. from postnatal day 70, listed as diazoxide) was 78.6% and the “Median Survival” value [2, 7] was 152 days. For the same compound, the “Percentage of mice alive” value [2, 7] was 71.4%, the “Percentage of mice alive” value ([2]; 0.1 mg/kg/day (0.3 mg/m^2/day) p.o. from postnatal day 70, listed as diazoxide) was 71.4% and the “Median Survival” value [2, 8] was 156 days. For the same compound, the “Percentage of mice alive” value [2, 8] was 85.7%, the “Percentage of mice alive” value ([2]; 1 mg/kg/day (3 mg/m^2/day) p.o. from postnatal day 70, listed as diazoxide) was 85.7% and the “hyperglycemia (glucose concentration equal or higher than 176 mg/dl)” value [3] was “none of the two doses tested in this study produced hyperglycemia”. The “increase in the amplitude of the tibialis anterior CMAP compared with the vehicle control group” value ([4]; 0.8 mg/kg/day (2.4 mg/m2/day) p.o.) was 17.1%, the “increase in the amplitude of the tibialis anterior CMAP compared with the vehicle control group” value ([4]; 4 mg/kg/day (12 mg/m2/day) p.o.) was 3.4% and the “amplitude of the tibialis anterior CMAP compared to the vehicle control group” value ([4]; 8 mg/kg/day (24 mg/m^2/day) p.o.) was “no differences”. For the same compound, the “effect on bupivacaine-induced acute CNS toxicity (latency of convulsions)” value (mice) was “reduce the bupivacaine-induced actute CNS toxicity” and the “hyperglycemia (glucose concentration equal or higher than 176 mg/dl)” value [5] was “none of the two doses tested in this study produced hyperglycemia”.
